We go through 2 compounds from article PMC8694192, “Synthesis and biological evaluation of new derivatives of thieno-thiazole and dihydrothiazolo-thiazole scaffolds integrated with a pyrazoline nucleus as anticancer and multi-targeting kinase inhibitors” (RSC Advances, 2021).

Series [1] concerns S. aureus 25923. Nature of the series: MIC, two-fold serial dilution. Particulars: Staphylococcus aureus, 25923, read-out: MIC S. aureus 25923.
For series [2], the system named is P. aeruginosa. Description: Agar well diffusion, inhibition zone. The class given is cell-based. Conditions: Pseudomonas aeruginosa, read-out: Mean diameter of inhibition zone (mean ± SEM) P. aeruginosa.
For series [3], the system named is E. faecalis. Nature of the series: Agar well diffusion, inhibition zone. The class given is cell-based. Conditions: Enterococcus faecalis, read-out: Mean diameter of inhibition zone (mean ± SEM) E. faecalis. On the technique in general: A growth-free zone around the sample is the usual read-out of agar diffusion tests.
For series [4], the system named is A. fumigatus RCMB 02568. Description: Agar well diffusion, inhibition zone. The class given is cell-based. Conditions: Aspergillus fumigatus, RCMB02568, read-out: Mean diameter of inhibition zone (mean ± SEM) A. fumigatus RCMB 02568.
Series [5] relates to S. pneumoniae 010010. Nature of the series: Agar well diffusion, inhibition zone. Conditions: Streptococcus pneumoniae, 010010, read-out: Mean diameter of inhibition zone (mean ± SEM) S. pneumoniae 010010. The series is classed as cell-based.
The test system of series [6] is E. faecalis. Nature of the series: MIC, two-fold serial dilution. Particulars: Enterococcus faecalis, read-out: MIC E. faecalis.
The test system of series [7] is E. coli RCMB 010052. Description: Agar well diffusion, inhibition zone. The series is classed as cell-based. Conditions: Escherichia coli, RCMB010052, read-out: Mean diameter of inhibition zone (mean ± SEM) E. coli RCMB 010052.
Series [8] concerns S. pneumoniae 010010. Nature of the series: MIC, two-fold serial dilution. Particulars: Streptococcus pneumoniae, 010010, read-out: MIC S. pneumoniae 010010.
Series [9] relates to C. albicans ATCC 10231. Nature of the series: Agar well diffusion, inhibition zone. The class given is cell-based. Particulars: Candida albicans, ATCC10231, read-out: Mean diameter of inhibition zone (mean ± SEM) C. albicans ATCC 10231.
The subject of a further series is HepG-2 cells. Description: In vitro cytotoxicity, MTT assay, HepG-2. Conditions: Homo sapiens, HepG2, read-out: IC50 HepG-2. A general note: Tetrazolium dyes change colour on reduction, which living cells bring about.
Series [10] concerns E. coli RCMB 010052. Nature of the series: MIC, two-fold serial dilution. Conditions: Escherichia coli, RCMB010052, read-out: MIC E. coli RCMB 010052.
Series [11] deals with S. typhi ATCC 14028. Description: Agar well diffusion, inhibition zone. The series is classed as cell-based. Particulars: Salmonella enterica, read-out: Mean diameter of inhibition zone (mean ± SEM) S. typhi ATCC 14028.
Series [12] concerns C. albicans ATCC 10231. Nature of the series: MIC, two-fold serial dilution. Particulars: Candida albicans, ATCC10231, read-out: MIC C. albicans ATCC 10231.
The subject of series [13] is A. fumigatus RCMB 02568. Description: MIC, two-fold serial dilution. Particulars: Aspergillus fumigatus, RCMB02568, read-out: MIC A. fumigatus RCMB 02568.
Series [14] relates to S. typhi ATCC 14028. Nature of the series: MIC, two-fold serial dilution. The class given is cell-based. Conditions: Salmonella enterica, read-out: MIC S. typhi ATCC 14028.
The test system of series [15] is S. aureus 25923. Description: Agar well diffusion, inhibition zone. Particulars: Staphylococcus aureus, 25923, read-out: Mean diameter of inhibition zone (mean ± SEM) S. aureus 25923. The series is classed as cell-based.
Another series relates to MCF-7 cells. Description: In vitro cytotoxicity, MTT assay, MCF-7. Particulars: Homo sapiens, MCF7, read-out: IC50 MCF-7.
Series [16] concerns P. aeruginosa. Nature of the series: MIC, two-fold serial dilution. Particulars: Pseudomonas aeruginosa, read-out: MIC P. aeruginosa.

Molecules are shown by their SMILES. ≈ marks a conversion by molar mass, not a printed value.

One may read the MIC as the smallest concentration in the dilution series that meets the test's criterion for growth inhibition. Broadly, the zone of inhibition is the extent of the growth-free halo in a diffusion test. A word on the IC50: it is the concentration that gives 50% inhibition. The term melting point denotes the temperature, or range, at which the solid turns liquid.

As for `Cc1c(Nc2nc3c(C(N)=S)c(N)sc3s2)c(=O)n(-c2ccccc2)n1C` [Compound 3d, 5-Amino-2-((1,5-dimethyl-3-oxo-2-phenyl-2,3-dihydro-1H-pyrazol-4-yl)amino) thieno[3,2-d]thiazole-6-carbothioamide], the melting point was in the range of 297 to 299 °C. In the series on S. aureus 25923 [1], the MIC was 181 µM (≈ 75.4 µg/mL). For the same compound, the zone of inhibition at 500 µg/mL with P. aeruginosa [2] is 20 ± 0.19 mm. Also, the zone of inhibition at 500 µg/mL with E. faecalis [3] was 22 ± 0.11 mm. In addition, in the series with A. fumigatus RCMB 02568 [4], the zone of inhibition at 500 µg/mL is 19 ± 0.45 mm. Moreover, the zone of inhibition at 500 µg/mL with S. pneumoniae 010010 [5] worked out at 28 ± 0.45 mm. The MIC with E. faecalis [6] stood at 75.5 µM (≈ 31.4 µg/mL). The zone of inhibition at 500 µg/mL in the series on E. coli RCMB 010052 [7] came out at 22 ± 0.14 mm. The MIC in the series with S. pneumoniae 010010 [8] was 16.2 µM (≈ 6.74 µg/mL). Also, in the series with C. albicans ATCC 10231 [9], the zone of inhibition at 500 µg/mL came to 16 ± 0.28 mm. The half-inhibitory concentration (IC50) in the series with HepG-2 cells was 16.91 ± 0.01 µM. For the same compound, in the series on E. coli RCMB 010052 [10], the MIC came to 71.8 µM (≈ 29.9 µg/mL). Besides, the zone of inhibition at 500 µg/mL in the series with S. typhi ATCC 14028 [11] was determined as 18 ± 0.13 mm. In addition, the MIC with C. albicans ATCC 10231 [12] turned out to be 132 µM (≈ 55.1 µg/mL). Besides, the MIC in the series with A. fumigatus RCMB 02568 [13] stood at 118 µM (≈ 49.1 µg/mL). In addition, the MIC with S. typhi ATCC 14028 [14] worked out at 121 µM (≈ 50.6 µg/mL). In addition, the zone of inhibition at 500 µg/mL in the series with S. aureus 25923 [15] was 13 ± 0.95 mm. Further, the IC50 in the series on MCF-7 cells turned out to be 18.19 ± 0.01 µM. In the series with P. aeruginosa [16], the MIC was found to be 67 µM (≈ 27.9 µg/mL).
The compound `Cc1c(Nc2nc3c(s2)sc(=S)n3C)c(=O)n(-c2ccccc2)n1C` [Compound 5c, 1,5-Dimethyl-4-((4-methyl-5-thioxo-4,5-dihydrothiazolo[4,5-d]thiazol-2-yl)amino)-2-phenyl-1H-pyrazol-3(2H)-one] displayed a melting point of 189 to 191 °C. Also, the MIC with S. aureus 25923 [1] is 68.8 µM (≈ 26.8 µg/mL). Also, the zone of inhibition at 500 µg/mL in the series on P. aeruginosa [2] stood at 22 ± 0.48 mm. Besides, the zone of inhibition at 500 µg/mL in the series with E. faecalis [3] was found to be 24 ± 0.89 mm. Moreover, the zone of inhibition at 500 µg/mL in the series with A. fumigatus RCMB 02568 [4] is 26 ± 0.17 mm. The zone of inhibition at 500 µg/mL in the series with S. pneumoniae 010010 [5] amounted to 15 ± 0.86 mm. Moreover, the MIC in the series with E. faecalis [6] was 18.9 µM (≈ 7.35 µg/mL). Moreover, in the series with E. coli RCMB 010052 [7], the zone of inhibition at 500 µg/mL is 25 ± 0.1 mm. In addition, the MIC in the series with S. pneumoniae 010010 [8] worked out at 178 µM (≈ 69.4 µg/mL). Moreover, the zone of inhibition at 500 µg/mL in the series with C. albicans ATCC 10231 [9] stood at 19 ± 0.23 mm. Further, the IC50 with HepG-2 cells amounted to 11.85 ± 0.03 µM. For the same compound, the MIC with E. coli RCMB 010052 [10] turned out to be 20.8 µM (≈ 8.08 µg/mL). The zone of inhibition at 500 µg/mL with S. typhi ATCC 14028 [11] is 17 ± 0.78 mm. The MIC in the series on C. albicans ATCC 10231 [12] is 79.4 µM (≈ 30.9 µg/mL). For the same compound, in the series on A. fumigatus RCMB 02568 [13], the MIC turned out to be 17.8 µM (≈ 6.95 µg/mL). Besides, in the series on S. typhi ATCC 14028 [14], the MIC stood at 125 µM (≈ 48.8 µg/mL). Also, the zone of inhibition at 500 µg/mL in the series on S. aureus 25923 [15] was 20 ± 0.08 mm. Also, the IC50 in the series on MCF-7 cells was determined as 14.69 ± 0.03 µM. In the series on P. aeruginosa [16], the minimal inhibitory concentration (MIC) came to 62.2 µM (≈ 24.2 µg/mL).
